For assay [1], the system named is TNF α. The experiment in a line: Ex-vivo human whole blood, LPS-induced TNF-α by ELISA. The assay is classed as cell-based. Conditions: LPS 1 ng/ml; for inhibition at 10 µM / inhibition at 100 µM: Homo sapiens. On the procedure: (§1) Blood was collected by venous puncture from 3 different volunteers in separate heparinized (100 IU/ml) tubes and incubated in the presence of 10 μM and 100 μM of test compounds for 1 hr at 37° C. Following this LPS (1 ng/ml final concentration) was added and incubation continued for 5 hr. The reaction was terminated by placing the samples on ice for 10 min. The samples were then centrifuged, plasma separated and stored at −70° C. until the analysis of TNF-α and IL-1β by ELISA: […]

Assay [2] concerns the target p38 MAP kinase (Homo sapiens, UniProt Q16539). The experiment in a line: p-38 MAPK Enzyme assay (in vitro ELISA, ATF-2 substrate). Format: biochemical. Conditions: ELISA detection of phosphorylated ATF-2. The text has this: The compounds were screened using an in vitro ELISA assay for p38 MAP kinase activity. Activated p38 MAP kinase during the course of its biological function phosphorylates its substrates. The assay was based on the detection of a phosphorylated p38 MAP kinase substrate using ATF-2 as the biological substrate. More the activity of the p38 MAP kinase inhibitor in the reaction mixture less will be the amount of active p38 MAP kinase available to phosphorylate ATF-2. So, lower OD value will indicate the higher inhibition of p38 MAP kinase by the specific p38 MAP kinase inhibitor. The quantitation of phosphorylated ATF-2 at varying concentrations of p38 MAP kinase inhibitor was used to determine the IC50 by fitting the results to a logistic dose-response program (Graphpad Prism, CA). IC50 was defined as the concentration of compound required to achieve 50% inhibition of p38 MAP kinase activity.
On the technique in general: ELISA stands for enzyme-linked immunosorbent assay.

For assay [3], the system named is TNF α. Briefly: In vivo LPS induced TNF α inhibition in Balb/c mice. The following applies: 10 mg/kg orally, 30 minutes prior to i.v. LPS (50 μg/kg); blood 60 minutes after LPS. On the procedure: Balb/c mice were kept for acclimatization in the observation room for two days before the experiment. On the day of the experiment, animals were weighed and the test compounds to be administered calculated at a 10 mg/kg body weight basis in a total volume of 2 ml. Control groups received vehicle alone while the treatment groups received the test compound, both given orally, 30 minutes prior to intravenous injection of LPS (50 μg/kg). Blood was collected 60 minutes after the LPS injection from retro orbital plexus, the serum separated & stored in deep freeze till the estimation of TNF by ELISA method.

Assay [4] deals with IL-1 β. The experiment in a line: Ex-vivo human whole blood, LPS-induced IL-1β by ELISA. The assay is classed as cell-based. The following applies: LPS 1 ng/ml; for inhibition at 10 µM / inhibition at 100 µM: Homo sapiens. Here is the method:
as §1

What is called inhibition is the drop in the measured response relative to a control, in per cent. Read a high inhibition as strong suppression. For orientation: IC50 means the concentration needed to halve the response being measured. Lower therefore signals inhibition by little substance.

p38 MAP kinase, sequence (Q16539 whole entry): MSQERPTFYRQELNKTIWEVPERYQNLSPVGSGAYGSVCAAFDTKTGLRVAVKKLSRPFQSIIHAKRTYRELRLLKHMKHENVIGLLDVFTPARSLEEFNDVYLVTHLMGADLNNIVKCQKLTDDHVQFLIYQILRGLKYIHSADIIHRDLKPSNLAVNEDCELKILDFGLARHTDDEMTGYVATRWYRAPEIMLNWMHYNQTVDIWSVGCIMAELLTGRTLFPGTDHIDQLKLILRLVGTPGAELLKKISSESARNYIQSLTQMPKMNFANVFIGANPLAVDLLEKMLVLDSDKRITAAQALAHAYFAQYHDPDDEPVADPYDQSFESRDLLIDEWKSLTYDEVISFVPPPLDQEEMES

Turning to `CCc1nc(-c2ccc(F)c(F)c2)c(-c2ccnc(N=S(=O)(c3ccccc3)C(C)C)c2)s1` (stereo not shown) [Example 60, S-Isopropyl-S-phenyl-N-{4-[2-ethyl-4-(3,4-difluorophenyl)-thiazol-5-yl]-pyridin-2-yl}-sulfoximine], the inhibition at 10 µM came out at 36.7% in assay [1] (Conc 10 μM) and 35.2% in assay [4] (Conc 10 μM). Also, the results for the inhibition at 100 µM in assay [1] (Conc 100 μM) and in assay [4] (Conc 100 μM) were 81.7% and 84.5%, respectively. Inhibition in assay [2] was half-maximal at 11.8 µM (IC50). Also, the “In vivo LPS induced TNF α inhibition in Balb/c mice TNF α % inhibition (10 mg/kg)” value in assay [3] turned out to be 53.65%.
In the case of `CCc1nc(-c2ccc(F)cc2)c(-c2ccnc(N=S(C)(=O)c3cccc(C)c3)c2)s1` (stereo not shown) [Example 46, S-Methyl-S-3-methylphenyl-N-[4-(2-ethyl-4-fluorophenyl-thiazol-5-yl)-pyridine]-sulfoximine], the “TNF α % inhibition” value amounted to 40.9% in assay [1] (Conc 10 μM) and 90.1% in assay [1] (Conc 100 μM). Also, the “In vivo LPS induced TNF α inhibition in Balb/c mice TNF α % inhibition (10 mg/kg)” value in assay [3] amounted to 56.80%. For the same molecule, the “IL-1 β % inhibition” value in assay [4] (Conc 10 μM) amounted to 73.3%; in assay [4] (Conc 100 μM), 95.8%.
Consider `CCc1nc(-c2ccc(F)cc2)c(-c2ccnc(N=S(=O)(c3ccccc3)C(C)C)c2)s1` (single isomer, unassigned; (-)) [Example 36, (−)-Isopropyl-S-phenyl-N-{4-[2-ethyl-4-(4-fluoro-phenyl)-thiazol-5-yl]-pyridin-2-yl}-sulfoximine], for which the inhibition at 10 µM in assay [1] (Conc 10 μM) was found to be 34.3%; in assay [4] (Conc 10 μM) it was 38.9%. The inhibition at 100 µM was 97.7% in assay [1] (Conc 100 μM) and 96.3% in assay [4] (Conc 100 μM). This molecule gave an IC50 in assay [2] of 13.4 µM. Further, the “In vivo LPS induced TNF α inhibition in Balb/c mice TNF α % inhibition (10 mg/kg)” value in assay [3] is given as 43.3%.
As to `CS(=O)(=Nc1cc(-c2scnc2-c2cccc(F)c2)ccn1)c1ccccc1` (stereo not shown) [Example 71], 25.5 µM corresponded to half-maximal inhibition in assay [2] (IC50).
Take `CCc1nc(-c2ccccc2)c(-c2ccnc(N=S(C)(=O)c3ccccc3)c2)s1` (single isomer, unassigned; (+)) [Example 21]: the IC50 in assay [2] is 2.7 µM.
In the case of `CCc1nc(-c2ccc(F)cc2)c(-c2ccnc(N=S(C)(=O)c3cccc(F)c3)c2)s1` (stereo not shown) [Example 47, S-Methyl-S-3-fluorophenyl-N-[4-{2-ethyl-4-(4-fluorophenyl)-thiazol-5-yl}-pyridine-2-yl]-sulfoximine], the inhibition at 10 µM came to 24.4% in assay [1] (Conc 10 μM) and 78.1% in assay [4] (Conc 10 μM). Besides, the results for the inhibition at 100 µM in assay [1] (Conc 100 μM) and in assay [4] (Conc 100 μM) were 89.6% and 98.5%, respectively. Also, the “In vivo LPS induced TNF α inhibition in Balb/c mice TNF α % inhibition (10 mg/kg)” value in assay [3] came to 48.60%.
In assay [2], `CCc1nc(-c2cccc(C)c2)c(-c2ccnc(N=S(=O)(c3ccccc3)c3ccccc3)c2)s1` [Example 11, S,S-Diphenyl-N-[4-(2-ethyl-4-m-tolyl-thiazol-5-yl)-pyridin-2-yl]-sulfoximine] registered an IC50 of 2 µM.
The same measure, in the same setting: under `O=S(=Nc1cc(-c2scnc2-c2ccc(F)cc2)ccn1)(c1ccccc1)C1CCCC1` (stereo not shown) [Example 75] stands 12.6 µM; under `CCc1nc(-c2ccccc2)c(-c2ccnc(N=S(=O)(c3ccccc3)C3CCCC3)c2)s1` (single isomer, unassigned; (-)) [Example 29], 2.6 µM; under `O=S(=Nc1cc(-c2scnc2-c2cccc(F)c2)ccn1)(c1ccccc1)C1CCCC1` (stereo not shown) [Example 70], 8.2 µM.
In assay [2], `CCc1nc(-c2ccc(F)c(F)c2)c(-c2ccnc(N=S(C)(=O)c3ccccc3)c2)s1` (stereo not shown) [Example 58, S-Methyl-S-phenyl-N-{4-[2-ethyl-4-(3,4-difluorophenyl)-thiazol-5-yl]pyridin-2-yl}-sulfoximine] yielded an IC50 of 1 µM.
For `CCc1nc(-c2cccc(C)c2)c(-c2ccnc(N=S(=O)(C3CCCCC3)C3CCCCC3)c2)s1` [Example 2, S,S-dicyclohexyl-N-[4-(2-ethyl-4-m-tolyl-thiazol-5-yl)-pyridine-2-yl]sulfoximine], the IC50 in assay [2] stood at 1.2 µM.
On the same count and under the same terms, the figure for `CCc1nc(-c2ccc(F)cc2)c(-c2ccnc(N=S(C)(=O)c3ccccc3)c2)s1` (single isomer, unassigned; (+)) [Example 40, (+)-S-Methyl-S-phenyl-N-[4-(2-ethyl-4-(4-fluoro-phenyl)-1,3-thiazol-5-yl)-pyridine-2-yl]-sulfoximine] is 2.7 µM; for `CCc1nc(-c2cccc(C)c2)c(-c2ccnc(N=S(=O)(CC(C)C)c3ccccc3)c2)s1` (stereo not shown) [Example 8, S-Isobutyl-S-phenyl-N-[4-(2-ethyl-4-m-tolyl-thiazol-5-yl)-pyridin-2-yl]-sulfoximine] it is 55.4 µM; for `CCc1nc(-c2cccc(C)c2)c(-c2ccnc(N=S(=O)(c3ccccc3)C(C)C)c2)s1` (stereo not shown) [Example 13, S-Isopropyl-S-phenyl-N-[4-(2-ethyl-4-(3-methylphenyl)-1,3-thiazol-5-yl)-pyridine-2-yl]-sulfoximine] it is 1.3 µM.
Same read-out and setting: under `CCc1nc(-c2ccc(F)cc2)c(-c2ccnc(N=S(=O)(c3ccccc3)C3CCCC3)c2)s1` (stereo not shown) [Example 42, S-Cyclopentyl-S-Phenyl-N-[4-(2-ethyl-4-(4-fluorophenyl)-1,3-thiazol-5-yl)-pyridine-2-yl]-sulfoximine] stands 7.1 µM; under `CCc1nc(-c2cccc(C)c2)c(-c2ccnc(N=S(C)(=O)c3cccc(C)c3)c2)s1` (stereo not drawn) [Example 10, S-(3-Methylphenyl)-S-methyl-N-[4-(2-ethyl-4-m-tolyl-thiazol-5-yl)-pyridin-2-yl]-sulfoximine], 11.1 µM.
Consider `CCc1nc(-c2ccccc2)c(-c2ccnc(N=S(C)(=O)c3cccc(F)c3)c2)s1` (stereo not drawn) [Example 25, S-Methyl-S-(3-fluorophenyl)-N-[4-{2-ethyl-4-phenyl-thiazol-5-yl}-pyridine]-sulfoximine], for which the “TNF α % inhibition” value in assay [1] (Conc 10 μM) is 15.39%; in assay [1] (Conc 100 μM) it was 64.06%. In assay [3], the “In vivo LPS induced TNF α inhibition in Balb/c mice TNF α % inhibition (10 mg/kg)” value worked out at 59.6%. Also, the “IL-1 β % inhibition” value in assay [4] (Conc 10 μM) was 38.5%; in assay [4] (Conc 100 μM), 79.4%.
As for `CCc1nc(-c2cccc(C)c2)c(-c2ccnc(N=S(C)(=O)c3ccccc3)c2)s1` (single isomer, unassigned; (-)) [Example 6, (−)-S-methyl-S-phenyl-N-[4-(2-ethyl-4-(3-methylphenyl)-1,3-thiazol-5-yl)-pyridine-2-yl]-sulfoximine], in assay [2], half-maximal inhibition (IC50) required 0.15 µM.
The same measure, in the same setting: under `CCc1nc(-c2ccc(F)cc2)c(-c2ccnc(N=S(=O)(c3ccccc3)C(C)C)c2)s1` (stereo not shown) [Example 35, S-Isopropyl-S-phenyl-N-{-4-[2-ethyl-4-(4-fluoro-phenyl)-thiazol-5-yl]-pyridin-2-yl}-sulfoximine] stands 14.6 µM.
The same measure, in the same setting: under `CC(C)S(=O)(=Nc1cc(-c2scnc2-c2ccc(F)cc2)ccn1)c1ccccc1` (stereo not shown) [Example 74] stands 7.5 µM; under `CCc1nc(-c2cccc(C)c2)c(-c2ccnc(N=S(C)(=O)c3ccccc3)c2)s1` (stereo not shown) [Example 4, S-Methyl-S-phenyl-N-[4-(2-ethyl-4-(3-methylphenyl)-1,3-thiazol-5-yl)-pyridine-2-yl]-sulfoximine], 1.12 µM; under `CCc1nc(-c2cccc(C)c2)c(-c2ccnc(N=S(C)(=O)c3ccc(C)cc3)c2)s1` (stereo not shown) [Example 15, S-Methyl-S-4-methylphenyl-N-[4-(2-ethyl-4-(3-methylphenyl)-1,3-thiazol-5-yl)-pyridine-2-yl]-sulfoximine], 4.9 µM.
With `CCc1nc(-c2ccc(F)cc2)c(-c2ccnc(N=S(C)(=O)c3ccc(OC)cc3)c2)s1` (stereo not drawn) [Example 34, S-(4-Methoxy-phenyl)-S-methyl-N-{-4-[2-ethyl-4-(4-fluoro-phenyl)-thiazol-5-yl]-pyridin-2-yl}-sulfoximine], the IC50 in assay [2] was found to be 6.4 µM.
Still for that read-out and setting: under `CCc1nc(-c2ccccc2)c(-c2ccnc(N=S(=O)(c3ccccc3)C3CCCC3)c2)s1` (stereo not shown) [Example 28, S-Cyclopentyl-S-phenyl-N-[4-{2-ethyl-4-phenyl-thiazol-5-yl}-pyridine]-sulfoximine] stands 0.46 µM; under `CCc1nc(-c2ccc(F)cc2)c(-c2ccnc(N=S(=O)(c3ccccc3)c3ccccc3)c2)s1` [Example 45, S,S-Diphenyl-N-[4-(2-ethyl-4-(4-fluorophenyl)-thiazol-5-yl)-pyridin-2-yl]-sulfoximine], 1.35 µM.
The same measure, in the same setting: the figure for `Cc1cccc(-c2nc(-c3ccc([S+](C)[O-])cc3)sc2-c2ccnc(N=S(C)(=O)c3ccccc3)c2)c1` (stereo not shown) [Example 57, S-Methyl-S-phenyl-N-{-4-[2-(4-methylsulfinyl-phenyl)-4-m-tolyl-thiazol-5-yl]-pyridin-2-yl}-sulfoximine] is 6.5 µM.

The values are drawn from patent publication US20100240709A1, “Sulfoximine Derivatives as p38 MAP Kinase Inhibitors” (priority 2005, published 2010).
